Test results: patent US9751837B2, “Kinase inhibitors” (RESPIVERT LIMITED, priority 2014, dated 2017)
In brackets after ≈: the same amount, converted by molar mass.

Experiments:
[1] = Solubility in fasted-state simulated colonic fluid (FaSSCoF) at pH 6.5; assay type: physicochemical; details: 25 °C, pH 6.5, fassgf or other biorelevant, thermodynamic from solid
Method: The solubilities of compounds of the invention in FaSSCoF at pH 6.5 are determined using a modification of a previously-reported procedure (Vertzoni, M., et al. Pharm. Res. 2010, 27, 2187-2196). In place of the bile salt extract employed in the original procedure (which extract is no longer available), the modified procedure uses a mixture of sodium taurochlorate (0.15 g), glycocholic acid (0.15 g), ursodeoxycholic acid (0.05 g), cholic acid (0.05 g), and glycodeoxycholic acid (0.05 g). These five bile acids are ground together with a mortar and pestle to produce a fine white powder that is incorporated into the FaSSCoF, as outlined below.
Tris(hydroxymethyl)aminomethane (Tris; 0.275 g) and maleic acid (0.44 g) are dissolved in water (35 mL) to give a solution whose pH is adjusted to 6.5 by treatment with 0.5M NaOH (ca. 12 mL). The solution is then made up to 50 mL with water. A portion of this Tris/maleate buffer solution (ca. 25 mL) is added to a 0.5 L round-bottomed flask, before being treated with 0.00565 g of the bile acid mixture described above. Solutions of phosphatidylcholine (0.0111 g) in DCM (0.15 mL) and palmitic acid (0.0013 g) in DCM (0.15 mL) are added, then the organic solvent is evaporated off under reduced pressure at 40° C. until a clear solution, with no perceptible DCM odour, is achieved. The volume of the evaporated solution is adjusted to 50 mL by addition of the remainder of Tris/maleate buffer, then BSA (0.115 g) is added, before being dissolved by gentle agitation.
Test compounds are suspended in the pH 6.5 FaSSCoF medium to give a maximum final concentration of 2-10 mg/mL. The suspensions are equilibrated at 25° C. for 24 h, before being filtered through a glass fibre C filter. The filtrates are then diluted as appropriate for injection and quantification by HPLC with reference to a standard. Different volumes of the standard, diluted and undiluted sample solutions are injected and the solubilities are calculated using the peak areas determined by integration of the peak found at the same retention time as the principal peak in the standard injection.

Jurkat cells = experiment: Cell cytotoxicity assay (r); assay type: cell-based, human; details: 24 hours
Method: 1×10^5 Jurkat cells (immortalised human T lymphocytes) are added to the appropriate number of wells of a 96 well plate in 100 μL of media (RPMI supplemented with 10% foetal bovine serum). 1 μL of DMSO control (final concentration 1.0% v/v) or test compound (final concentration 20, 5 or 1 μg/mL) is added to the wells and incubated at 37° C., 5% CO2. After 24 hours, the plate is centrifuged at 1200 rpm for 3 minutes and the supernatant discarded. Cells are then resuspended in 150 μL (final concentration 7.5 μg/mL) of propidium iodide (PI) in PBS and incubated at 37° C., 5% CO2 for 15 minutes. After 15 minutes, cells are analysed by flow cytometry (BD accuri) using the FL3 window. The % viability is calculated as the % of cells that are PI negative in the test wells normalised to the DMSO control.

[2] = pH 6.5 FaSSCoF Solubility (mg/mL) Run 1
[3] = pH 6.5 FaSSCoF Solubility (mg/mL) Run 2

Compound | % Viability at 20 μg/mL (Jurkat cells) [%] | other results
COc1cc(Nc2nccc(Oc3ccc(NC(=O)Nc4cc(C(C)(C)C)cc(NS(C)(=O)=O)c4OC)c4ccccc34)n2)ccc1C(=O)NCCC1CCN(C)CC1 [17(an), 4-((4-((4-(3-(5-(tert-butyl)-2-methoxy-3-(methylsulfonamido)phenyl)ureido)naphthalen-1-yl)oxy)pyrimidin-2-yl)amino)-2-methoxy-N-(2-(1-methylpiperidin-4-yl)ethyl)benzamide] | 1.1 | solubility thermodynamic at 24 h [1, 2]: 47 µg/mL (≈ 57 µM); solubility thermodynamic at 24 h [1, 3]: 49 µg/mL (≈ 59.4 µM)
COc1cc(Nc2nccc(Oc3ccc(NC(=O)Nc4cc(C(C)(C)C)cc(NS(C)(=O)=O)c4OC)c4ccccc34)n2)ccc1C(=O)NCCCN1CCOCC1 [17(ao), 4-((4-((4-(3-(5-(tert-Butyl)-2-methoxy-3-(methylsulfonamido)phenyl)ureido)naphthalen-1-yl)oxy)pyrimidin-2-yl)amino)-2-methoxy-N-(3-morpholinopropyl)benzamide] | 1.6 | solubility thermodynamic at 24 h [1, 2]: 9 µg/mL (≈ 10.9 µM); solubility thermodynamic at 24 h [1, 3]: 9 µg/mL (≈ 10.9 µM)
COc1cc(Nc2cc(Oc3ccc(NC(=O)Nc4cc(C(C)(C)C)cc(NS(C)(=O)=O)c4OC)c4ccccc34)ccn2)ccc1C(=O)NCCCCCN(C)C [17(bd), 4-((4-((4-(3-(5-(tert-Butyl)-2-methoxy-3-(methylsulfonamido)phenyl)ureido)naphthalen-1-yl)oxy)pyridin-2-yl)amino)-N-(5-(dimethylamino)pentyl)-2-methoxybenzamide] | 0.1 | –
CCN1CCN(CCNC(=O)c2ccc(Nc3cc(Oc4ccc(NC(=O)Nc5cc(C(C)(C)C)cc(NS(C)(=O)=O)c5OC)c5ccccc45)ccn3)cc2OC)CC1 [17(be), 4-((4-((4-(3-(5-(tert-Butyl)-2-methoxy-3-(methylsulfonamido)phenyl)ureido)naphthalen-1-yl)oxy)pyridin-2-yl)amino)-N-(2-(4-ethylpiperazin-1-yl)ethyl)-2-methoxybenzamide] | 0.5 | % Viability at 5 μg/mL (Jurkat cells): 0.7%
COc1cc(Nc2cc(Oc3ccc(NC(=O)Nc4cc(C(C)(C)C)cc(NS(C)(=O)=O)c4OC)c4ccccc34)ccn2)ccc1C(=O)NCCN1CCN(C)CC1(C)C [17(bi), 4-((4-((4-(3-(5-(tert-Butyl)-2-methoxy-3-(methylsulfonamido)phenyl)ureido)naphthalen-1-yl)oxy)pyridin-2-yl)amino)-2-methoxy-N-(2-(2,2,4-trimethylpiperazin-1-yl)ethyl)benzamide] | 0.6 | % Viability at 5 μg/mL (Jurkat cells): 0.8%
CCC(=O)NS(=O)(=O)c1ccc(Nc2nccc(Oc3ccc(NC(=O)Nc4cc(C(C)(C)C)cc(NS(C)(=O)=O)c4OC)c4ccccc34)n2)cc1OC [17(bk), N-((4-((4-((4-(3-(5-(tert-Butyl)-2-methoxy-3-(methylsulfonamido)phenyl)ureido)-naphthalen-1-yl)oxy)pyrimidin-2-yl)amino)-2-methoxyphenyl)sulfonyl)propionamide] | – | % Viability at 1 μg/mL (Jurkat cells): 93.0%
COc1cc(Nc2cc(Oc3ccc(NC(=O)Nc4cc(NS(C)(=O)=O)cc(C(C)(C)C)c4)c4ccccc34)ccn2)ccc1C(=O)NCCC1CCN(C)CC1 [17(bs), 4-((4-((4-(3-(3-(tert-Butyl)-5-(methylsulfonamido)phenyl)ureido)naphthalen-1-yl)oxy)pyridin-2-yl)amino)-2-methoxy-N-(2-(1-methylpiperidin-4-yl)ethyl)benzamide] | 0.3 | –
COc1cc(Nc2nccc(Oc3ccc(NC(=O)Nc4cc(C(C)(C)C)cc(NS(C)(=O)=O)c4OC)c4ccccc34)n2)ccc1C(=O)NCCOCCOCCO [17(by), 4-((4-((4-(3-(5-(tert-Butyl)-2-methoxy-3-(methylsulfonamido)phenyl)ureido)naphthalen-1-yl)oxy)pyrimidin-2-yl)amino)-N-(2-(2-(2-hydroxyethoxy)ethoxy)ethyl)-2-methoxybenzamide] | 1.6 | –
COc1cc(Nc2cc(Oc3ccc(NC(=O)Nc4cc(C(C)(C)C)cc(NS(C)(=O)=O)c4OC)c4ccccc34)ccn2)ccc1S(=O)(=O)CCCN1CCN(C)CC1 [17(ch), N-(5-(tert-Butyl)-2-methoxy-3-(3-(4-((2-((3-methoxy-4-((3-(4-methylpiperazin-1-yl)propyl)sulfonyl)phenyl)amino)pyridin-4-yl)oxy)naphthalen-1-yl)ureido)phenyl)methanesulfonamide] | 0.7 | % Viability at 1 μg/mL (Jurkat cells): 82.0%
COc1cc(Nc2cc(Oc3ccc(NC(=O)Nc4cc(C(C)(C)C)cc(NS(C)(=O)=O)c4OC)c4ccccc34)ccn2)ccc1C(=O)N[C@@H]1CCN(C)C1 [17(cq), (R)-4-((4-((4-(3-(5-(tert-Butyl)-2-methoxy-3-(methylsulfonamido)phenyl)ureido)-naphthalen-1-yl)oxy)pyridin-2-yl)amino)-2-methoxy-N-(1-methylpyrrolidin-3-yl)benzamide] | 0.7 | % Viability at 5 μg/mL (Jurkat cells): 9.0%
COc1cc(Nc2cc(Oc3ccc(NC(=O)Nc4cc(C(C)(C)C)cc(NS(C)(=O)=O)c4OC)c4ccccc34)ccn2)ccc1C(=O)NCCN1CC[C@@H](O)C1 [17(cr), (R)-4-((4-((4-(3-(5-(tert-Butyl)-2-methoxy-3-(methylsulfonamido)phenyl)ureido)-naphthalen-1-yl)oxy)pyridin-2-yl)amino)-N-(2-(3-hydroxypyrrolidin-1-yl)ethyl)-2-methoxybenzamide] | 0.9 | % Viability at 5 μg/mL (Jurkat cells): 18.0%
COc1cc(Nc2cc(Oc3ccc(NC(=O)Nc4cc(C(C)(C)C)cc(NS(C)(=O)=O)c4OC)c4ccccc34)ccn2)ccc1S(=O)(=O)N(C)CCCN1CCN(C)CC1 [Example 25, 4-((4-((4-(3-(5-(tert-Butyl)-2-methoxy-3-(methylsulfonamido)phenyl)ureido)naphthalen-1-yl)oxy)pyridin-2-yl)amino)-2-methoxy-N-methyl-N-(3-(4-methylpiperazin-1-yl)propyl)benzenesulfonamide] | 0.7 | –
COc1cc(Nc2cc(Oc3ccc(NC(=O)Nc4cc(C(C)(C)C)cc(NS(C)(=O)=O)c4OC)c4ccccc34)ccn2)ccc1C(=O)NCCC1CCNCC1 [Example 27, 4-((4-((4-(3-(5-(tert-Butyl)-2-methoxy-3-(methylsulfonamido)phenyl)ureido)naphthalen-1-yl)oxy)pyridin-2-yl)amino)-2-methoxy-N-(2-(piperidin-4-yl)ethyl)benzamide] | 1.7 | –
COc1cc(Nc2cc(Oc3ccc(NC(=O)Nc4cc(C(C)(C)C)cc(C(=O)NCCO)c4OC)c4ccccc34)ccn2)ccc1C(=O)NCCN1CC[S+]([O-])CC1 [Example 32, 5-(tert-Butyl)-N-(2-hydroxyethyl)-2-methoxy-3-(3-(4-((2-((3-methoxy-4-((2-(1-oxidothiomorpholino)ethyl)carbamoyl)phenyl)amino)pyridin-4-yl)oxy)naphthalen-1-yl)ureido)benzamide] | 2.5 | –
COc1cc(Nc2cc(Oc3ccc(NC(=O)Nc4cc(C(C)(C)C)cc(NS(C)(=O)=O)c4OC)c4ccccc34)ccn2)ccc1C(=O)NC[C@H](O)[C@H](O)[C@H](O)CO [Example 42, 4-((4-((4-(3-(5-(tert-Butyl)-2-methoxy-3-(methylsulfonamido)phenyl)ureido)naphthalen-1-yl)oxy)pyridin-2-yl)amino)-2-methoxy-N-((2S,3S,4R)-2,3,4,5-tetrahydroxypentyl)benzamide] | – | solubility thermodynamic at 24 h [1, 2]: 7 µg/mL (≈ 8.4 µM); solubility thermodynamic at 24 h [1, 3]: 9 µg/mL (≈ 10.8 µM)
